Laboratory results from PMC9145393, “Design, Semisynthesis, and Estrogenic Activity of Lignan Derivatives from Natural Dibenzylbutyrolactones” (Pharmaceuticals, 2022).

What was measured:
[1] = system: ER-dependent transcriptional activity in T47D-KBluc cells; assay: ERE-luciferase reporter in T47D-KBluc cells, agonist assessment (absence of E2); type: cell-based, human
Protocol: Lactols (5) and (6) were tested as a mixture of the two epimers obtained.
Chemical screening was carried out by using T47D-KBluc cells, an ER+ BC cell line that is stably transfected with the pGL2.TATA.Inr.Luc.neo containing three ER-responsive elements (ERE). The T47D-KBluc cells were maintained in standard growth media as detailed above. Dosing media was further modified by reduction of DCC-FBS to 5%. […] Chemical screening was also carried out by using the triple negative BC cell line MDA-kb2 cells that stably expresses pMMTV.neo.luc gene, an AR- and GR-responsive reporter gene. […] The T47D-KBluc cells or the MDA-kb2 cells were seeded at 100,000 cells per well in 24-well plates (Nunclon, Sigma-Aldrich, Darmstadt, Germany ) and allowed to attach overnight. Then, the media was replaced with 1 mL/well of dosing media and test compounds incubated 24 h. Then, the cells were harvested in 100 µL passive lysis buffer (Promega, Madison, WI, USA) per well. The relative light units (RLUs), which correspond to luciferase activity from each sample, were measured by using Luciferase Assay Reagent (Promega) in a Clarity luminescence microplate reader (BIOTEK, Winooski, VT, USA). The RLUs from each sample were normalized by protein concentration and converted to fold induction with respect to vehicle-treated control. […] Then, the percent of efficacy (E) of each tested compound, as compared with Emax, was calculated. […] Data are expressed as mean ± SEM of triplicate independent experiments, where each treatment was assayed in triplicate. […] Duplicate plates were dosed in parallel to control the effects of compounds on cell viability. The protein concentration was measured in cell lysate using colorimetric assay reagent (BioRad, CA, USA).

T47D cells = assay: MTT cell viability, E2-depleted T47D cells; type: cell-based, human; conditions: 10 μM, 24 h, absence of E2
Protocol: (§1) The effects of lignan derivatives were evaluated on human ER+ BC cells.
(§2) Cells were maintained in RPMI (Lonza, Basel, Switzerland) growth media, without phenol red, supplemented with 10% fetal bovine serum (FBS) (Lonza), 2 mM glutamine, 10 mM HEPES, 1 mM sodium pyruvate, 100 UI/mL penicillin and 100 μg/mL streptomycin. Cells were growth in a humidified incubator with 5% CO2 at 37 °C.
(§3) The cells were maintained in standard growth media as detailed above and seeded at exponential growth density (6000 cells per well) in 96-well plates (BD Falcon, France). The cells were then treated with vehicle or tests compounds (from 0.01 μM to 10 μM) for 24–72 h. The mitochondrial metabolization of the tetrazolium salt 3-(4,5-methyltiazol-2yl-)-2,5diphenyl-tetrazolium bromide] (MTT) (Applichen, Darmstadt, Germany) was used as an indicator of cell viability.
(§4) Figure 6 Effects of lignans on ER+ breast cancer cell viability. […] Then, the mitochondrial metabolization of MTT was used as an indicator of cell viability, as described in the Material and Methods. Data are expressed as mean ± SEM for at least three independent experiments, where each concentration is tested in triplicate. * p < 0.05, ** p < 0.01, and *** p < 0.001 versus VEH-treated cells.

T47D and MCF7 cells = assay: MTT cell viability, E2 non-depleted T47D and MCF7 cells, 72 h; type: cell-based, human; conditions: 10 μM, maximum reduction
Protocol: as §1, §2, §3, §4

rhERα-LBD = molecular target: T1, rhERα-LBD (Homo sapiens, UniProt P03372); assay: LanthaScreen TR-FRET competitive binding assay; conditions: 10-point competition curves; Mean ± SE; read-out: IC50 (inhibition of Fluormone tracer binding to rhERα)
T1 sequence (P03372 311-547 limits assumed): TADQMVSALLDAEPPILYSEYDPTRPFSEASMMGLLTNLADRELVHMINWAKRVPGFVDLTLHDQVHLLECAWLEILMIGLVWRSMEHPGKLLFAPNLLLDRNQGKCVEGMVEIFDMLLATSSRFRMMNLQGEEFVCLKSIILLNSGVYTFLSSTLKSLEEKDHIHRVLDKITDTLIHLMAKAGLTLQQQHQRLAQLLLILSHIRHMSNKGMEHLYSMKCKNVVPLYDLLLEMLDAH
Protocol: Next, the binding of lignan derivatives to the LBD of rhERα was analyzed by using time-resolved fluorescence resonance energy transfer (TR-FRET) competitive binding assay. […] The LanthaScreen^TM TR-FRET Nuclear Receptor (NR) binding assay (SelectScreen^TM Profiling Service, Life Technologies, Carlsbad, CA, USA) was used for screening of potential binding of lignan derivatives to human ERα [33]. Briefly, the kit uses the recombinant human ERα (rhERα) protein and a tight binding, selective fluorescent ligand, Fluormone^TM tracer. […] The rhERα protein and the tracer form rhERα/tracer complex, resulting in a high FP value. […] Dose-response competition curves were fitted by nonlinear regression analyses in the GraphPad software 8 (GraphPad Software, San Diego, CA, USA) to obtain IC50 values.
Data are expressed as mean ± SEM for from at least three independent experiments, where each concentration is tested in triplicate.

[2] = molecular target: T2, ERα from rat uterine cytosol (RUC) (Rattus norvegicus, UniProt P06211); assay: Rat uterine cytosol competitive radioligand ([3H]E2) binding assay
T2 construct: from tissue
T2 sequence (P06211 1-600): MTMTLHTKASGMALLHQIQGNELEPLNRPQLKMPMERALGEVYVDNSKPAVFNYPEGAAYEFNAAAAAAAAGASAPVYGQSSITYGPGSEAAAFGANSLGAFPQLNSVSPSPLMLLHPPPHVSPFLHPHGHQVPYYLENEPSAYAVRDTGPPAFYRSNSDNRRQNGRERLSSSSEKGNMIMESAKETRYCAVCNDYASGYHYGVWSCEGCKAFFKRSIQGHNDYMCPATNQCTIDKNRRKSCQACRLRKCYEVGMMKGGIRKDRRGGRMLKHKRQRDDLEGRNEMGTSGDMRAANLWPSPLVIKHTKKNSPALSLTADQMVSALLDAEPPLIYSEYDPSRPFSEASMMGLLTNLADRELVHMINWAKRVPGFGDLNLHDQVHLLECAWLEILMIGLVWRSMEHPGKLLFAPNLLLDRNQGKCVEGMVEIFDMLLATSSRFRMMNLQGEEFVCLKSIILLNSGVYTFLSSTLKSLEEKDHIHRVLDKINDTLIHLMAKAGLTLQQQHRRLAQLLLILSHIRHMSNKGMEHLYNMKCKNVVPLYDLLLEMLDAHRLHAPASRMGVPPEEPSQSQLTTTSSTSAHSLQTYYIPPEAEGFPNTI

COc1ccc(C[C@@H](C)[C@H](C)Cc2ccc(O)c(O)c2)cc1OC [Compound 14, 4-((2R,3R)-4-(3,4-Dimethoxyphenyl)-2,3-dimethylbutyl)benzene-1,2-diol]
E/Emax (%) VEH [1]: weak estrogenic activity
Emax ([1]; Homo sapiens, read-out: E/Emax (%) VEH): 21.7 ± 4.12%
reduction of cell viability (T47D cells): reduced cell viability
reduction of cell viability (T47D and MCF7 cells): 33.4%
IC50 (rhERα-LBD): 160 ± 110 nM
IC50 [2]: 3960 ± 980 nM
